≈ marks a conversion by molar mass, not a printed value.
Tests used:
[1] = Solubilization by fixing the micelle structure: drug concentration in the clear neutral liquid; type: physicochemical; settings: for clear liquid obtained: no alkali; for clear liquid obtained / concentration of AP-1067 in clear neutral liquid containing solubilized drug: 45° C.; for concentration of AP-1067 in clear neutral liquid containing solubilized drug: pH adjusted to neutral
Method: (§1) About 10 mg of AP-1067 was dispersed into 1 mL of water. An aqueous solution of sodium hydroxide was added thereto to adjust the solution to pH=13 or above. The suspension was heated up to 45° C. to obtain a clear alkali aqueous liquid containing solubilized AP-1067 wherein a micelle of AP-1067 was formed. (AP-1067 concentration: about 10 mg/mL)
(§2) 40 mg of sodium dodecyl sulfate (SDS) was added to the alkali aqueous liquid to fix the formed micelle structure. Then, an aqueous solution of hydrochloric acid was added dropwise thereto and its pH was adjusted to neutral to obtain a clear neutral liquid containing slubilized AP-1067 wherein the micelle of AP-1067 existed in the fixed manner. The concentration of AP-1067 at that time was 9.1 mg/mL.
as §1, with “solution of” for “liquid containing solubilized”
as §2, with “100 mg” for “40 mg”, “of Polysorbate 80” for “of sodium dodecyl sulfate (SDS)”, “aqueous solution” for “aqueous liquid”, “containing solubilized” for “containing slubilized”, “was 10.3” for “was 9.1”
10 mg of AP-1067 and 40 mg of SDS were dispersed into 1 mL of water. The suspension was heated up to 45° C., and the ultrasonic treatment was conducted for 1.5 hours.
10 mg of AP-1067 and 100 mg of Polysorbate 80 were dispersed into 1 mL of water. The suspension was heated up to 45° C., and the ultrasonic treatment was conducted for 1.5 hours.
10 mg of APC0576 and 83 mg of cetylpyridinium chloride monohydrate were dispersed and dissolved into 1 mL of an aqueous solution of 1.5 mol/L hydrochloric acid. The suspension was heated up to 50° C., and the ultrasonic treatment was conducted thereto to obtain a clear acidic aqueous liquid containing solubilized APC0576 wherein a micelle of the poorly-soluble drug APC0576 existed in the fixed manner. (APC0576 concentration: about 10 mg/mL)
An aqueous solution of 10 mol/L sodium hydroxide was added dropwise to the acidic aqueous liquid to adjust its pH to nearly neutral to obtain about 7 mg/mL of a clear liquid containing solubilized APC0576 wherein the micelle of APC0576 existed in the fixed manner. (see FIG. 3)
10 mg of APC0576 and 85 mg of cetylpyridinium chloride monohydrate were dissolved into 1 mL of water. The suspension was heated up to 50° C., and the ultrasonic treatment was conducted for 1.5 hours. […] (see FIG. 3)

[2] = Solubility in water at room temperature

Compound	clear liquid obtained ([1]; Comparative Example 1: 10 mg drug and 40 mg SDS in 1 mL water, ultrasonic 1.5 hours)	clear liquid obtained ([1]; Comparative Example 2: 10 mg drug and 100 mg Polysorbate 80 in 1 mL water, ultrasonic 1.5 hours)	concentration of AP-1067 in clear neutral liquid containing solubilized drug ([1]; Example 1: micelle formed at pH=13 or above, fixed with 40 mg SDS)	concentration of AP-1067 in clear neutral liquid containing solubilized drug ([1]; Example 2: micelle formed at pH=13 or above, fixed with 100 mg Polysorbate 80)	solubility [2]	clear solubilized solution obtained ([1]; Comparative Example 3: 10 mg drug and 85 mg cetylpyridinium chloride monohydrate in 1 mL water, no acid, 50° C., ultrasonic 1.5 hours)	concentration of clear liquid containing solubilized APC0576 ([1]; Example 3: 83 mg cetylpyridinium chloride monohydrate, 1.5 mol/L hydrochloric acid, 50° C., ultrasonic, pH adjusted to nearly neutral)
Cl.NS(=O)(=O)c1ccc(/C=C/CN2CCC(=C3c4ccccc4C=Cc4ccccc43)CC2)cc1 [AP-1067, (4-(5H-dibenzo[a,d]cyclohepten-5-ylidene)-1-[3-[4-sulfamoylphenyl]-2(E)-propenyl]-piperidine, monohydro-chloride)]	could not be obtained	could not be obtained	9100 µg/mL	10300 µg/mL	~30 µg/mL	–	–
CC1(C)C[C@@H]1C(=O)Nc1ccc(Oc2ccc(NC(=O)[C@H]3CC3(C)C)cn2)cc1 [APC0576, 5-(((S)-2,2-dimethyl-cyclopropancarbonyl)amino)-2-(4-(((S)-2,2-dimethylcyclopropancarbonyl)amino)phenoxy)pyridine]	–	–	–	–	~1.6 µg/mL (≈ 4.07 µM)	could not be obtained	about 7 mg/mL

Source: patent publication US20060140991A1, “Pharmaceutical preparations having an improved solubility” (AJINOMOTO CO. INC, priority 2003, published 2006)
